Like-named read-outs stand apart in the source and are kept apart here.
Assays:
[1] = Measurement of log P values by HPLC on reversed phase columns (EEC directive 79/831 Annex V.A8); assay type: physicochemical; conditions: for logP: Table 1 active ingredients
Alternaria brassicae = experiment: In vivo preventive test on Alternaria brassicae (leaf spot on radish); conditions: preventive spray on radish plants, grading 6 days after contamination vs control plants
Protocol: Radish plants (“Pernod Clair” variety), sown in starter cups on a 50/50 peat soil-pozzolana substrate and grown at 17° C., are treated at the cotyledon stage by spraying with the active ingredient prepared as described above. Plants, used as controls, are treated with the mixture of acetone/tween/DMSO/water not containing the active material. After 24 hours, the plants are contaminated by spraying the cotyledons with an aqueous suspension of Alternaria brassicae spores (50 000 spores per ml). The spores are collected from a 15-day-old culture. The contaminated radish plants are incubated at 20° C. and at 100% relative humidity. Grading (% of efficacy) is carried out 6 days after the contamination, in comparison with the control plants.

Botrytis cinerea = experiment: In vivo preventive test on Botrytis cinerea (grey mould); conditions: preventive spray on gherkin plants, grading 4 to 5 days after contamination vs control plants
Protocol: Gherkin plants (“Vert petit de Paris” variety), sown in starter cups on a 50/50 peat soil-pozzolana substrate and grown at 24° C., are treated at the Z11 cotyledon stage by spraying with the active ingredient prepared as described above. Plants, used as controls, are treated with the mixture of acetone/tween/DMSO/water not containing the active material. After 24 hours, the plants are contaminated by spraying the cotyledons with an aqueous suspension of cryopreserved Botrytis cinerea spores (50 000 spores per ml). The spores are suspended in a nutrient solution composed of 10 g/L of PDB, 50 g/L of D-Fructose, 2 g/L of NH4NO3 and 1 g/L of KH2PO4. The contaminated gherkin plants are incubated at 17° C. and at 90% relative humidity. Grading (% of efficacy) is carried out 4 to 5 days after the contamination, in comparison with the control plants.

Puccinia recondita = experiment: In vivo preventive test on Puccinia recondita (brown rust on wheat); conditions: preventive spray on wheat plants, grading 12 days after contamination vs control plants
Protocol: Wheat plants (“Scipion” variety), sown in starter cups on a 50/50 peat soil-pozzolana substrate and grown at 22° C., are treated at the 1-leaf stage (10 cm height) by spraying with the active ingredient prepared as described above. Plants, used as controls, are treated with the mixture of acetone/tween/DMSO/water not containing the active material. After 24 hours, the plants are contaminated by spraying the leaves with an aqueous suspension of Puccinia recondita spores (100 000 spores per ml). […] The contaminated wheat plants are incubated for 24 hours at 20° C. and at 100% relative humidity, and then for 10 days at 20° C. and at 70-80% relative humidity. Grading (% of efficacy) is carried out 12 days after the contamination, in comparison with the control plants.

Uromyces appendiculatus = experiment: In vivo preventive test on Uromyces appendiculatus (bean rust); conditions: preventive spray on bean plants, grading 11 days after contamination vs control plants
Protocol: Bean plants (“Saxa” variety), sown in starter cups on a 50/50 peat soil-pozzolana substrate and grown at 24° C., are treated at the 2-leaf stage (9 cm height) by spraying with the active ingredient prepared as described above. Plants, used as controls, are treated with the mixture of acetone/tween/DMSO/water not containing the active material. After 24 hours, the plants are contaminated by spraying the leaves with an aqueous suspension of Uromyces appendiculatus spores (150 000 spores per ml). […] The contaminated bean plants are incubated for 24 hours at 20° C. and at 100% relative humidity, and then for 10 days at 20° C. and at 70-80% relative humidity. Grading (% of efficacy) is carried out 11 days after the contamination, in comparison with the control plants.

Septoria tritici = experiment: In vivo preventive test on Septoria tritici (leaf spot on wheat); conditions: dose of 500 ppm; preventive spray on wheat plants; grading 24 days after contamination vs control plants
Protocol: Wheat plants (“Scipion” variety), sown in starter cups on a 50/50 peat soil-pozzolana substrate and grown at 22° C., are treated at the 1-leaf stage (10 cm height) by spraying with the active ingredient prepared as described above. Plants, used as controls, are treated with the mixture of acetone/tween/DMSO/water not containing the active material. After 24 hours, the plants are contaminated by spraying the leaves with an aqueous suspension of cryopreserved Septoria tritici spores (500 000 spores per ml). The contaminated wheat plants are incubated for 72 hours at 18° C. and at 100% relative humidity, and then for 21 days at 90% relative humidity. Grading (% of efficacy) is carried out 24 days after the contamination, in comparison with the control plants.

Sphaerotheca fuliginea = experiment: In vivo preventive test on Sphaerotheca fuliginea (powdery mildew on cucurbits); conditions: preventive spray on gherkin plants, grading 12 days after contamination vs control plants
Protocol: Gherkin plants (“Vert petit de Paris” variety), sown in starter cups on a 50/50 peat soil-pozzolana substrate and grown at 24° C., are treated at the Z11 cotyledon stage by spraying with the active ingredient prepared as described above. Plants, used as controls, are treated with the mixture of acetone/tween/DMSO/water not containing the active material. After 24 hours, the plants are contaminated by spraying the cotyledons with an aqueous suspension of Sphaerotheca fuliginea spores (100 000 spores per ml). The spores are collected from infected plants. The contaminated gherkin plants are incubated at about 20° C. and at 70-80% relative humidity. Grading (% of efficacy) is carried out 12 days after the contamination, in comparison with the control plants.

Pyrenophora teres = experiment: In vivo preventive test on Pyrenophora teres (net blotch on barley); conditions: preventive spray on barley plants, grading 14 days after contamination vs control plants
Protocol: Barley plants (“Plaisant” variety), sown in starter cups on a 50/50 peat soil-pozzolana substrate and grown at 22° C., are treated at the 1-leaf stage (10 cm height) by spraying with the active ingredient prepared as described above. Plants, used as controls, are treated with the mixture of acetone/tween/DMSO/water not containing the active material. After 24 hours, the plants are contaminated by spraying the leaves with an aqueous suspension of Pyrenophora teres spores (12 000 spores per ml). The spores are collected from a 12-day-old culture. The contaminated barley plants are incubated for 48 hours at 20° C. and at 100% relative humidity, and then for 12 days at 20° C. at 70-80% relative humidity. Grading (% of efficacy) is carried out 14 days after the contamination, in comparison with the control plants.

[2] = method [a]: LC-MS at pH 2.7, 0.1% formic acid in water / acetonitrile, linear gradient 10% to 95% acetonitrile
[3] = reversed phase HPLC column, method [a]: LC-MS at pH 2.7, 0.1% formic acid in water / acetonitrile, linear gradient 10% to 95% acetonitrile, Table 2 intermediates of formula (III-a), read-out: logP

logP [1, 2]	Structure (SMILES)	Eff. % (Alternaria brassicae; dose of 500 ppm)	Eff. % (Puccinia recondita; dose of 500 ppm)	Eff. % (Uromyces appendiculatus; dose of 500 ppm)	further results
3.92[a]	CC1CCC(C)(C)c2cccc(NC(=O)c3c(C(F)F)nn(C)c3F)c21 (racemic) [Example 3]	93%	94%	100%	Eff. % (Botrytis cinerea; dose of 500 ppm): 100%
4.14[a]	CC1CCC(C)(C)c2cccc(NC(=O)c3c(C(F)F)nn(C)c3Cl)c21 (racemic) [Example 4]	92%	94%	99%	–
4.39[a]	CC1c2cccc(NC(=O)c3c(C(F)F)nn(C)c3Cl)c2CCC1(C)C (racemic) [Example 11]	–	98%	100%	–
4.29[a]	CC1CCc2c(NC(=O)c3c(C(F)F)nn(C)c3Cl)cccc2C1(C)C (racemic) [Example 15]	–	98%	95%	Eff. % (Septoria tritici): 75%; Eff. % (Sphaerotheca fuliginea; dose of 500 ppm): 70%
4.14[a]	C=C1c2cccc(NC(=O)c3c(C(F)F)nn(C)c3Cl)c2CCC1(C)C [Example 5]	–	94%	100%	Eff. % (Botrytis cinerea; dose of 500 ppm): 93%
4.09[a]	CC1CCc2c(NC(=O)c3c(C(F)F)nn(C)c3Cl)cccc2C1C (centres unmarked) [Example 7]	97%	100%	100%	–
3.83[a]	CC1CCc2c(NC(=O)c3c(C(F)F)nn(C)c3F)cccc2C1C (centres unmarked) [Example 8]	97%	100%	99%	Eff. % (Pyrenophora teres; dose of 500 ppm): 71%; Eff. % (Sphaerotheca fuliginea; dose of 500 ppm): 85%
3.72[a]	Cn1nc(C(F)F)c(C(=O)Nc2cccc3c2CC(C)(C)CC3)c1F [Example 13]	–	97%	100%	Eff. % (Pyrenophora teres; dose of 500 ppm): 75%; Eff. % (Septoria tritici): 95%; Eff. % (Sphaerotheca fuliginea; dose of 500 ppm): 98%
3.9[a]	Cn1nc(C(F)F)c(C(=O)Nc2cccc3c2CC(C)(C)CC3)c1Cl [Example 14]	71%	100%	99%	Eff. % (Pyrenophora teres; dose of 500 ppm): 97%; Eff. % (Septoria tritici): 90%; Eff. % (Sphaerotheca fuliginea; dose of 500 ppm): 98%
4.01[a]	Cn1nc(C(F)F)c(C(=O)Nc2ccc(F)c3c2CCCC3(C)C)c1Cl [Example 16]	–	97%	100%	–
4.24[a]	Cn1nc(C(F)F)c(C(=S)Nc2ccc(F)c3c2CCCC3(C)C)c1Cl [Example 17]	–	100%	100%	–
3.31[a]	CCON=C1CCCc2c(NC(=O)c3c(C(F)F)nn(C)c3F)cccc21 [Example 18]	83%	–	81%	Eff. % (Pyrenophora teres; dose of 500 ppm): 92%
2.86[a]	CON=C1CCCc2c(NC(=O)c3c(C(F)F)nn(C)c3F)cccc21 [Example 19]	96%	–	–	Eff. % (Botrytis cinerea; dose of 500 ppm): 96%
3.57[a]	CCON=C1CCCc2c(NC(=O)c3c(C(F)F)nn(C)c3Br)cccc21 [Example 20]	–	–	–	–
3.55[a]	CCON=C1CCCc2c(NC(=O)c3c(C(F)F)nn(C)c3Cl)cccc21 [Example 21]	–	94%	–	Eff. % (Pyrenophora teres; dose of 500 ppm): 75%
4.04[a]	Cn1nc(C(F)F)c(C(=O)Nc2cccc3c2CCC(C)(C)C3)c1Br [Example 23]	–	79%	96%	–
3.76[a]	Cn1nc(C(F)F)c(C(=O)Nc2ccc(F)c3c2CCCC3(C)C)c1F [Example 24]	75%	97%	100%	–
3.13[a]	CON=C1CCCc2c(NC(=O)c3c(C(F)F)nn(C)c3Br)cccc21 [Example 26]	–	–	–	–
3.69[a]	Cn1nc(C(F)F)c(C(=O)Nc2cccc3c2C(C)(C)CCC3)c1Cl [Example 27]	–	–	–	–
3.09[a]	CON=C1CCCc2c(NC(=O)c3c(C(F)F)nn(C)c3Cl)cccc21 [Example 28]	–	–	–	–
3.44[a]	Cn1nc(C(F)F)c(C(=O)Nc2cccc3c2C(C)(C)CCC3)c1F [Example 29]	–	–	–	–
4.11[a]	Cn1nc(C(F)F)c(C(=S)Nc2cccc3c2CCC(C)(C)C3)c1Br [Example 31]	–	–	–	–
3.99[a]	Cn1nc(C(F)F)c(C(=S)Nc2cccc3c2CCC(C)(C)C3)c1F [Example 32]	–	–	–	Eff. % (Alternaria brassicae; dose of 100 ppm): 75%; Eff. % (Botrytis cinerea; dose of 100 ppm): 73%; Eff. % (Pyrenophora teres; dose of 100 ppm): 83%; Eff. % (Puccinia recondita; dose of 100 ppm): 94%; Eff. % (Sphaerotheca fuliginea; dose of 100 ppm): 98%; Eff. % (Uromyces appendiculatus; dose of 100 ppm): 97%
–	Cn1nc(C(F)F)c(C(=S)Nc2cccc3c2CCC(C)(C)C3)c1Cl [Example 33, 5-chloro-3-(difluoromethyl)-N-(6,6-dimethyl-5,6,7,8-tetrahydronaphthalen-1-yl)-1-methyl-1H-pyrazole-4-carbothioamide]	–	–	–	chromatographic logP ([1]; pH 2.7): 4.11; Eff. % (Alternaria brassicae; dose of 100 ppm): 75%; Eff. % (Puccinia recondita; dose of 100 ppm): 94%; Eff. % (Uromyces appendiculatus; dose of 100 ppm): 99%
–	CC1(C)CCCc2c(N)cccc21 [III-a-1, 5,5-dimethyl-5,6,7,8-tetrahydronaphthalen-1-amine]	–	–	–	chromatographic logP [1, 3]: 1.69
–	CC1(C)CCc2c(N)cccc2C1 [III-a-12, 6,6-dimethyl-5,6,7,8-tetrahydronaphthalen-1-amine]	–	–	–	chromatographic logP [1, 3]: 1.86

— US9204646B2, “Pyrazole tetrahydronaphthyl carboxamides” (BAYER CROPSCIENCE AG, priority 2012, dated 2015)
